Laboratory results taken from US10543198B2 (Celgene Quanticel Research, Inc., priority 2014, dated 2020).
pIC50: −log10 of the molar value.

Each compound was assayed on THP-1 (AML) cells (assay: LSD1 CD11b Cellular Assay (flow cytometry)). Settings: CD11b expression in THP-1 cells, 4 days incubation.
Format: cell-based
Description: To analyze LSD1 inhibitor efficacy in cells, a CD11b flow cytometry assay was performed. LSD1 inhibition induces CD11b expression in THP-1 (AML) cells which can be measured by flow cytometry. […] LSD1 test compounds were serially diluted in DMSO. The dilutions were added to each well accordingly to a final concentration of 0.2% DMSO. The cells were incubated at 37 degrees Celsius in 5% CO2 for 4 days. 250 μL of each well was transferred to a well in a 96 well round bottom plate. The plate was centrifuged at 1200 rpm at 4 degrees Celsius in a Beckman Coulter Alegra 6KR centrifuge for 5 minutes. The media was removed leaving the cells at the bottom of the wells. The cells were washed in 100 μL cold HBSS (Hank's Balanced Salt Solution) plus 2% BSA (Bovine Serum Albumin) solution and centrifuged at 1200 rpm at 4 degrees Celsius for 5 minutes. The wash was removed. […] The cells were centrifuged and washed two times in 100 μl HBSS plus 2% BSA. After the final spin the cells were resuspended in 100 μL HBSS plus 2% BSA containing 1 ug/mL DAPI (4′,6-diamidino-2-phenylindole). The cells were then analyzed by flow cytometry in a BD FACSAria machine. Cells were analyzed for CD11b expression. The percent of CD11b expressing cells for each inhibitor concentration was used to determine an IC50 curve for each compound analyzed.

Row | Compound | pIC50
1 | 4-[5-(4-methylphenyl)-1-[[(2R)-morpholin-2-yl]methyl]pyrrolo[3,2-b]pyridin-6-yl]benzonitrile [Example 48] | < 5.00

These compounds were tested against full-length human LSD1 (Homo sapiens (Human), UniProt O60341) (assay: In Vitro Enzyme Inhibition Assay - LSD-1 (TR-FRET)). Settings: 0.1 nM LSD1, H3K4me1-biotin peptide.
Format: biochemical
Description: This assay determines the ability of a test compound to inhibit LSD1 demethylase activity.
The enzymatic assay of LSD1 activity is based on Time Resolved-Fluorescence Resonance Energy Transfer (TR-FRET) detection.
The ability of the compounds disclosed herein to inhibit LSD1 activity was quantified and the respective IC50 value was determined.

Row | pIC50 | Compound
2 | > 7.00 | Cc1ccc(-c2cnc(NCC3(F)CCNC3)nc2-c2ccc(C#N)cc2)cc1 (racemic) [Example 28, (±)-4-(2-{[(3-fluoropyrrolidin-3-yl)methyl]amino}-5-(4-methylphenyl)pyrimidin-4-yl)benzonitrile]
3 | > 7.00 | Cc1ccc(-c2cnc(NC3CCCNC3)nc2-c2ccc(C#N)cc2)cc1 (racemic) [Example 29, (±)-4-[5-(4-methylphenyl)-2-[(piperidin-3-yl)amino]pyrimidin-4-yl]benzonitrile]
4 | > 7.00 | Cc1ccc(-c2nc3ccn(C[C@@H]4CCNC4)c3cc2-c2ccc(C#N)cc2)cc1 [Example 1, 4-[5-(4-methylphenyl)-1-[[(3R)-pyrrolidin-3-yl]methyl]pyrrolo[3,2-b]pyridin-6-yl]benzonitrile]
5 | > 7.00 | Cc1ccc(-c2nc3ccn(C[C@H]4CCNC4)c3cc2-c2ccc(C#N)cc2)cc1 [Example 3, 4-[5-(4-methylphenyl)-1-[[(3S)-pyrrolidin-3-yl]methyl]pyrrolo[3,2-b]pyridin-6-yl]benzonitrile]
6 | > 7.00 | Cc1ccc(-c2nc3ccn(C[C@H]4CNCCO4)c3cc2-c2ccc(C#N)cc2)cc1 [Example 10, 4-[5-(4-methylphenyl)-1-[[(2R)-morpholin-2-yl]methyl]pyrrolo[3,2-b]pyridin-6-yl]benzonitrile]
7 | > 7.00 | Cc1ccc(-c2nc3cnn(CC4CCNC4)c3cc2-c2ccc(C#N)cc2)cc1 (centres unmarked) [Example 13, 4-[5-(4-methylphenyl)-1-(pyrrolidin-3-ylmethyl)pyrazolo[4,3-b]pyridin-6-yl]benzonitrile]
8 | > 7.00 | Cc1ccc(-c2nc3cnn(CC4CCNCC4)c3cc2-c2ccc(C#N)cc2)cc1 [Example 14, 4-[5-(4-methylphenyl)-1-(piperidin-4-ylmethyl)pyrazolo[4,3-b]pyridin-6-yl]benzonitrile]
9 | > 7.00 | Cc1ccc(-c2cnc(NC[C@H]3CCNC3)nc2-c2ccc(C#N)cc2)cc1 [Example 16, 4-[5-(4-methylphenyl)-2-{[(3S)-pyrrolidin-3-ylmethyl]amino}pyrimidin-4-yl]benzonitrile]
10 | > 7.00 | N#Cc1ccc(-c2nc(NC[C@H]3CCNC3)ncc2-c2ccc(Cl)cc2)cc1 [Example 19, 4-[5-(4-chlorophenyl)-2-{[(3S)-pyrrolidin-3-ylmethyl]amino}pyrimidin-4-yl]benzonitrile]
11 | > 7.00 | Cc1ccc(-c2cnc(OC[C@@H]3CCNC3)nc2-c2ccc(C#N)cc2)cc1 [Example 20, 4-[5-(4-methylphenyl)-2-[(3R)-pyrrolidin-3-ylmethoxy]pyrimidin-4-yl]benzonitrile]
12 | > 7.00 | Cc1ccc(-c2cnc(N3C[C@H]4CNC[C@H]4C3)nc2-c2ccc(C#N)cc2)cc1 [Example 21, 4-{2-[(3aR,6aS)-octahydropyrrolo[3,4-c]pyrrol-2-yl]-5-(4-methylphenyl)pyrimidin-4-yl}benzonitrile]
13 | > 7.00 | Cc1ccc(-c2cnc(N3CCC4CNCC4C3)nc2-c2ccc(C#N)cc2)cc1 (centres unmarked) [Example 22, 4-[5-(4-methylphenyl)-2-{octahydro-1H-pyrrolo[3,4-c]pyridin-5-yl}pyrimidin-4-yl]benzonitrile]
14 | > 7.00 | Cc1ccc(-c2cnc(N3CC[C@@H]4CNC[C@@H]4CC3)nc2-c2ccc(C#N)cc2)cc1 [Example 23, 4-{2-[(3aR,8aS)-decahydropyrrolo[3,4-d]azepin-6-yl]-5-(4-methylphenyl)pyrimidin-4-yl}benzonitrile]
15 | > 7.00 | N#Cc1ccc(-c2nc(N3CC[C@@H]4CNC[C@@H]4CC3)ncc2-c2ccc(F)cc2)cc1 [Example 24, 4-{2-[(3aR,8aS)-decahydropyrrolo[3,4-d]azepin-6-yl]-5-(4-fluorophenyl)pyrimidin-4-yl}benzonitrile]
16 | > 7.00 | Cc1ccc(-c2cnc(NC3CCNCC3)nc2-c2ccc(C#N)cc2)cc1 [Example 30, 4-[5-(4-methylphenyl)-2-[(piperidin-4-yl)amino]pyrimidin-4-yl]benzonitrile]
17 | > 7.00 | Cc1ccc(-c2cnc(NCC3CCNCC3)nc2-c2ccc(C#N)cc2)cc1 [Example 32, 4-[5-(4-methylphenyl)-2-[(piperidin-4-ylmethyl)amino]pyrimidin-4-yl]benzonitrile]
18 | > 7.00 | Cc1ccc(-c2cnc(N3CCC4(CCNC4)C3)nc2-c2ccc(C#N)cc2)cc1 (centres unmarked) [Example 35, 4-(2-{2,7-diazaspiro[4.4]nonan-2-yl}-5-(4-methylphenyl)pyrimidin-4-yl)benzonitrile]
19 | > 7.00 | Cc1ccc(-c2cnc(N3CCC4(CCNCC4)C3)nc2-c2ccc(C#N)cc2)cc1 [Example 36, 4-(2-{2,8-diazaspiro[4.5]decan-2-yl}-5-(4-methylphenyl)pyrimidin-4-yl)benzonitrile]
20 | > 7.00 | Cc1ccc(-c2cnc(N3CCC4(CCNC4)CC3)nc2-c2ccc(C#N)cc2)cc1 [Example 39, 4-(2-{2,8-diazaspiro[4.5]decan-8-yl}-5-(4-methylphenyl)pyrimidin-4-yl)benzonitrile]
21 | > 7.00 | Cc1ccc(-c2cnc(N3CCC4(CCCN4)CC3)nc2-c2ccc(C#N)cc2)cc1 [Example 40, 4-(2-{1,8-diazaspiro[4.5]decan-8-yl}-5-(4-methylphenyl)pyrimidin-4-yl)benzonitrile]

The remaining lines, values behind:

Row | Compound | pIC50
22 | N#Cc1ccc(-c2cc3c(ccn3C[C@@H]3CCNC3)nc2Cl)cc1 [Example 2, 4-[5-chloro-1-[[(3R)-pyrrolidin-3-yl]methyl]pyrrolo[3,2-b]pyridin-6-yl]benzonitrile] | 6.00 to 7.00
23 | N#Cc1ccc(-c2cc3c(ccn3C[C@H]3CCNC3)nc2-c2ccc(F)cc2)cc1 [Example 5, 4-[5-(4-fluorophenyl)-1-[[(3S)-pyrrolidin-3-yl]methyl]pyrrolo[3,2-b]pyridin-6-yl]benzonitrile] | > 7.00
24 | N#Cc1ccc(-c2cc3c(ccn3C[C@H]3CCNC3)nc2N2CCOCC2)cc1 [Example 7, 4-[5-morpholin-4-yl-1-[[(3S)-pyrrolidin-3-yl]methyl]pyrrolo[3,2-b]pyridin-6-yl]benzonitrile] | > 7.00
25 | N#Cc1ccc(-c2cc3c(ccn3C[C@H]3CNCCO3)nc2-c2ccc(F)cc2)cc1 [Example 11, 4-[5-(4-fluorophenyl)-1-[[(2R)-morpholin-2-yl]methyl]pyrrolo[3,2-b]pyridin-6-yl]benzonitrile] | > 7.00
26 | Cc1ccc(-c2nc3ccn(CCCN)c3cc2-c2ccc(C#N)cc2)cc1 [Example 12, 4-[1-(3-aminopropyl)-5-(4-methylphenyl)pyrrolo[3,2-b]pyridine-6-yl]benzonitrile] | > 7.00
27 | Cc1ccc(-c2nc3cnn(C[C@H]4[C@@H]5CNC[C@@H]54)c3cc2-c2ccc(C#N)cc2)cc1 [Example 15, 4-[1-[[(1S,5R)-3-azabicyclo[3.1.0]hexan-6-yl]methyl]-5-(4-methylphenyl)pyrazolo[4,3-b]pyridin-6-yl]benzonitrile] | > 7.00
28 | N#Cc1ccc(-c2nc(NC[C@H]3CCNC3)ncc2-c2ccc(F)cc2)cc1 [Example 18, 4-[5-(4-fluorophenyl)-2-{[(3S)-pyrrolidin-3-ylmethyl]amino}pyrimidin-4-yl]benzonitrile] | > 7.00
29 | N#Cc1ccc(-c2nc(NC[C@H]3CCNC3)ncc2-c2ccc(C(F)(F)F)cc2)cc1 [Example 25, 4-(2-{[(3S)-pyrrolidin-3-ylmethyl]amino}-5-[4-(trifluoromethyl)phenyl]pyrimidin-4-yl)benzonitrile] | > 7.00
30 | N#Cc1ccc(-c2nc(NC[C@H]3CCNC3)ncc2C#CC2CC2)cc1 [Example 26, 4-[5-(2-cyclopropylethynyl)-2-{[(3S)-pyrrolidin-3-ylmethyl]amino}pyrimidin-4-yl]benzonitrile] | > 7.00
31 | Cc1ccc(-c2cc(NCC3CCNC3)nn2-c2ccc(C#N)cc2)cc1 (centres unmarked) [Example 43, 4-[5-(4-methylphenyl)-3-(pyrrolidin-3-ylmethylamino)pyrazol-1-yl]benzonitrile] | > 7.00
32 | Cc1ccc(-c2cc(NC[C@H]3CCNC3)nn2-c2ccc(C#N)cc2)cc1 [Example 44, 4-[5-(4-methylphenyl)-3-[[(3S)-pyrrolidin-3-yl]methylamino]pyrazol-1-yl]benzonitrile] | > 7.00
33 | Cc1ccc(-c2cc(NC[C@@H]3CCNC3)nn2-c2ccc(C#N)cc2)cc1 [Example 45, 4-[5-(4-methylphenyl)-3-[[(3R)-pyrrolidin-3-yl]methylamino]pyrazol-1-yl]benzonitrile] | > 7.00
34 | Cc1ccc(-c2cc(NCC3CCNCC3)nn2-c2ccc(C#N)cc2)cc1 [Example 46, 4-[5-(4-methylphenyl)-3-(piperidin-4-ylmethylamino)pyrazol-1-yl]benzonitrile] | > 7.00
35 | Cc1ccc(-c2cc(NC[C@H]3[C@@H]4CNC[C@@H]43)nn2-c2ccc(C#N)cc2)cc1 [Example 47, 4-[3-[[(1S,5R)-3-azabicyclo[3.1.0]hexan-6-yl]methylamino]-5-(4-methylphenyl)pyrazol-1-yl]benzonitrile] | > 7.00
